Source: ChEMBL document CHEMBL3044836, “Synthesis, antimicrobial and cytotoxic activities of novel 4-trifluoromethyl-(1,2,3)-thiadiazolo-5-carboxylic acid hydrazide Schiffs bases” (Med Chem Res, 2013)
In brackets after ≈: the same amount, converted by molar mass.

Columns and labels:
Assay type in all cases: functional
[1] = tested on: Staphylococcus epidermidis; assay: Antibacterial activity against Staphylococcus epidermidis MTCC 435 assessed as growth inhibition by broth dilution method
[2] = tested on: Candida albicans; assay: Antifungal activity against Candida albicans MTCC 227 assessed as growth inhibition at 150 ug/ml after 48 hr by agar cup diffusion method; conditions: MTCC 227, 48 h, read-out: DIZ
[3] = tested on: MDA-MB-231; assay: Cytotoxicity against Homo sapiens (human) MDA-MB-231 cells assessed as cell viability at 10 uM after 48 hr by MTT assay relative to control; conditions: MDA-MB-231, 48 h, read-out: Activity
[4] = tested on: Bacillus subtilis; assay: Antibacterial activity against Bacillus subtilis MTCC 441 assessed as growth inhibition by broth dilution method
[5] = tested on: MCF7; assay: Cytotoxicity against Homo sapiens (human) MCF7 cells assessed as cell viability at 10 uM after 48 hr by MTT assay relative to control; conditions: MCF7, 48 h, read-out: Activity
[6] = tested on: Klebsiella pneumoniae; assay: Antibacterial activity against Klebsiella pneumoniae assessed as growth inhibition by broth dilution method
[7] = tested on: Aspergillus niger; assay: Antifungal activity against Aspergillus niger MTCC 1344 assessed as growth inhibition at 150 ug/ml after 48 hr by agar cup diffusion method; conditions: MTCC 1344, 48 h, read-out: DIZ
[8] = tested on: Escherichia coli; assay: Antibacterial activity against Escherichia coli MTCC 443 assessed as growth inhibition by broth dilution method
[9] = tested on: Saccharomyces cerevisiae; assay: Antifungal activity against Saccharomyces cerevisiae MTCC 36 assessed as growth inhibition at 150 ug/ml after 48 hr by agar cup diffusion method; conditions: MTCC 36, 48 h, read-out: DIZ
[10] = tested on: Pseudomonas aeruginosa; assay: Antibacterial activity against Pseudomonas aeruginosa MTCC 741 assessed as growth inhibition by broth dilution method
[11] = tested on: Staphylococcus aureus; assay: Antibacterial activity against Staphylococcus aureus MTCC 96 assessed as growth inhibition by broth dilution method
[12] = tested on: Diutina rugosa; assay: Antifungal activity against Candida rugosa NCIM 3462 assessed as growth inhibition at 150 ug/ml after 48 hr by agar cup diffusion method; conditions: NCIM 3462, 48 h, read-out: DIZ
[13] = tested on: Aspergillus niger; assay: Antifungal activity against Aspergillus niger MTCC 1344 assessed as growth inhibition at 100 ug/ml after 48 hr by agar cup diffusion method; conditions: MTCC 1344, 48 h, read-out: DIZ
[14] = tested on: Candida albicans; assay: Antifungal activity against Candida albicans MTCC 227 assessed as growth inhibition at 100 ug/ml after 48 hr by agar cup diffusion method; conditions: MTCC 227, 48 h, read-out: DIZ
[15] = tested on: Saccharomyces cerevisiae; assay: Antifungal activity against Saccharomyces cerevisiae MTCC 36 assessed as growth inhibition at 100 ug/ml after 48 hr by agar cup diffusion method; conditions: MTCC 36, 48 h, read-out: DIZ
[16] = tested on: Diutina rugosa; assay: Antifungal activity against Candida rugosa NCIM 3462 assessed as growth inhibition at 100 ug/ml after 48 hr by agar cup diffusion method; conditions: NCIM 3462, 48 h, read-out: DIZ

| MIC ([4]; read-out: MIC) [mg/L] | MIC ([6]; read-out: MIC) [mg/L] | MIC ([8]; read-out: MIC) [mg/L] | MIC ([10]; read-out: MIC) [mg/L] | MIC ([11]; read-out: MIC) [mg/L] | MIC ([1]; read-out: MIC) [mg/L] | Compound | zone of inhibition at 150 µg/mL [2] [mm] | viability at 10 µM [3] [%] | viability at 10 µM [5] [%] | zone of inhibition at 150 µg/mL [7] [mm] | zone of inhibition at 150 µg/mL [9] [mm] | zone of inhibition at 150 µg/mL [12] [mm] | zone of inhibition at 100 µg/mL [13] [mm] | zone of inhibition at 100 µg/mL [14] [mm] | zone of inhibition at 100 µg/mL [15] [mm] | zone of inhibition at 100 µg/mL [16] [mm] | also measured |
| --- | --- | --- | --- | --- | --- | --- | --- | --- | --- | --- | --- | --- | --- | --- | --- | --- | --- |
| 150 (≈ 539 µM) | 150 (≈ 539 µM) | 150 (≈ 539 µM) | 150 (≈ 539 µM) | 150 (≈ 539 µM) |  | O=C(NN=C1CCCC1)c1snnc1C(F)(F)F | 0 | 84.2 | 97.9 | 0 | 0 | 0 | 0 | 0 | 0 | 0 | MIC [1]: > 150 mg/L |
|  |  | 150 (≈ 417 µM) | 150 (≈ 417 µM) | 150 (≈ 417 µM) |  | C/C(=N\NC(=O)c1snnc1C(F)(F)F)c1ccc([N+](=O)[O-])cc1 | 0 |  |  | 0 | 0 | 0 | 0 | 0 | 0 | 0 | MIC [1]: > 150 mg/L; MIC [4]: > 150 mg/L; MIC [6]: > 150 mg/L |
| 150 (≈ 490 µM) | 150 (≈ 490 µM) | 150 (≈ 490 µM) |  | 150 (≈ 490 µM) | 150 (≈ 490 µM) | O=C(N/N=C/c1cccs1)c1snnc1C(F)(F)F | 0 | 91.9 | 102 | 0 | 0 | 0 | 0 | 0 | 0 | 0 | MIC [10]: > 150 mg/L |
| 1.56 (≈ 4.67 µM) | 6.25 (≈ 18.7 µM) | 12.5 (≈ 37.4 µM) | 12.5 (≈ 37.4 µM) | 1.56 (≈ 4.67 µM) | 3.12 (≈ 9.35 µM) | CC1(C)S[C@@H]2[C@H](NC(=O)Cc3ccccc3)C(=O)N2[C@H]1C(=O)O [PENICILLIN G] |  |  |  |  |  |  |  |  |  |  |  |
| 150 (≈ 434 µM) | 150 (≈ 434 µM) | 150 (≈ 434 µM) | 150 (≈ 434 µM) | 150 (≈ 434 µM) | 150 (≈ 434 µM) | O=C(N/N=C/c1ccc([N+](=O)[O-])cc1)c1snnc1C(F)(F)F | 0 |  |  | 0 | 0 | 0 | 0 | 0 | 0 | 0 |  |
| 150 (≈ 471 µM) | 150 (≈ 471 µM) | 150 (≈ 471 µM) | 150 (≈ 471 µM) |  | 150 (≈ 471 µM) | O=C(N/N=C/c1ccc(F)cc1)c1snnc1C(F)(F)F | 0 | 102 | 99.5 | 0 | 0 | 0 | 0 | 0 | 0 | 0 | MIC [11]: > 150 mg/L |
| 150 (≈ 474 µM) |  | 150 (≈ 474 µM) |  | 150 (≈ 474 µM) | 150 (≈ 474 µM) | O=C(N/N=C/c1ccc(O)cc1)c1snnc1C(F)(F)F | 0 |  |  | 0 | 0 | 0 | 0 | 0 | 0 | 0 | MIC [6]: > 150 mg/L; MIC [10]: > 150 mg/L |
|  | 150 (≈ 396 µM) |  |  | 150 (≈ 396 µM) | 150 (≈ 396 µM) | O=C(N/N=C/c1ccc(Br)cc1)c1snnc1C(F)(F)F | 0 |  |  | 0 | 0 | 0 | 0 | 0 | 0 | 0 | MIC [4]: > 150 mg/L; MIC [8]: > 150 mg/L; MIC [10]: > 150 mg/L |
| 150 (≈ 454 µM) | 150 (≈ 454 µM) | 150 (≈ 454 µM) | 150 (≈ 454 µM) |  | 150 (≈ 454 µM) | COc1ccc(/C=N/NC(=O)c2snnc2C(F)(F)F)cc1 | 0 | 87.3 | 101 | 0 | 0 | 0 | 0 | 0 | 0 | 0 | MIC [11]: > 150 mg/L |
| 150 (≈ 500 µM) |  | 150 (≈ 500 µM) | 150 (≈ 500 µM) |  | 150 (≈ 500 µM) | O=C(N/N=C/c1ccccc1)c1snnc1C(F)(F)F | 12 | 102 | 102 | 0 | 0 | 6 | 0 | 10 | 0 | 0 | MIC [6]: > 150 mg/L; MIC [11]: > 150 mg/L |
|  | 150 (≈ 490 µM) | 150 (≈ 490 µM) | 150 (≈ 490 µM) | 150 (≈ 490 µM) |  | O=C(NN=C1CCCCCC1)c1snnc1C(F)(F)F | 0 |  |  | 0 | 0 | 0 | 0 | 0 | 0 | 0 | MIC [1]: > 150 mg/L; MIC [4]: > 150 mg/L |
| 150 (≈ 513 µM) | 150 (≈ 513 µM) | 150 (≈ 513 µM) |  | 150 (≈ 513 µM) | 150 (≈ 513 µM) | O=C(NN=C1CCCCC1)c1snnc1C(F)(F)F | 7 | 78.6 | 97.2 | 0 | 0 | 0 | 0 | 0 | 0 | 0 | MIC [10]: > 150 mg/L |
| 150 (≈ 595 µM) | 150 (≈ 595 µM) | 150 (≈ 595 µM) | 150 (≈ 595 µM) | 150 (≈ 595 µM) | 150 (≈ 595 µM) | CC(C)=NNC(=O)c1snnc1C(F)(F)F | 0 |  |  | 0 | 0 | 0 | 0 | 0 | 0 | 0 |  |
| 150 (≈ 437 µM) |  |  | 150 (≈ 437 µM) | 150 (≈ 437 µM) | 150 (≈ 437 µM) | CN(C)c1ccc(/C=N/NC(=O)c2snnc2C(F)(F)F)cc1 | 0 |  |  | 0 | 0 | 0 | 0 | 0 | 0 | 0 | MIC [6]: > 150 mg/L; MIC [8]: > 150 mg/L |
| 150 (≈ 318 µM) | 150 (≈ 318 µM) | 150 (≈ 318 µM) | 150 (≈ 318 µM) | 150 (≈ 318 µM) | 150 (≈ 318 µM) | C/C(=N\NC(=O)c1snnc1C(F)(F)F)c1ccc(Br)cc1Br | 15 | 94.7 | 123 | 0 | 0 | 0 | 0 | 11 | 0 | 0 |  |
|  | 150 (≈ 448 µM) |  | 150 (≈ 448 µM) | 150 (≈ 448 µM) |  | O=C(N/N=C/c1ccc(Cl)cc1)c1snnc1C(F)(F)F | 0 |  |  | 0 | 0 | 0 | 0 | 0 | 0 | 0 | MIC [1]: > 150 mg/L; MIC [4]: > 150 mg/L; MIC [8]: > 150 mg/L |

| Compound | MIC ([4]; read-out: MIC) [mg/L] | MIC ([6]; read-out: MIC) [mg/L] | MIC ([8]; read-out: MIC) [mg/L] | MIC ([10]; read-out: MIC) [mg/L] | MIC ([11]; read-out: MIC) [mg/L] | MIC ([1]; read-out: MIC) [mg/L] | zone of inhibition at 150 µg/mL [2] [mm] | viability at 10 µM [3] [%] | viability at 10 µM [5] [%] | zone of inhibition at 150 µg/mL [7] [mm] | zone of inhibition at 150 µg/mL [9] [mm] | zone of inhibition at 150 µg/mL [12] [mm] | zone of inhibition at 100 µg/mL [13] [mm] | zone of inhibition at 100 µg/mL [14] [mm] | zone of inhibition at 100 µg/mL [15] [mm] | zone of inhibition at 100 µg/mL [16] [mm] | also measured |
| --- | --- | --- | --- | --- | --- | --- | --- | --- | --- | --- | --- | --- | --- | --- | --- | --- | --- |
| CN[C@@H]1[C@H](O[C@H]2[C@H](O[C@H]3[C@H](O)[C@@H](O)[C@H](N=C(N)N)[C@@H](O)[C@@H]3N=C(N)N)O[C@@H](C)[C@]2(O)C=O)O[C@@H](CO)[C@H](O)[C@H]1O [STREPTOMYCIN] | 6.25 (≈ 10.7 µM) | 3.12 (≈ 5.37 µM) | 6.25 (≈ 10.7 µM) | 1.56 (≈ 2.69 µM) | 6.25 (≈ 10.7 µM) | 3.12 (≈ 5.37 µM) |  |  |  |  |  |  |  |  |  |  |  |
